Consider two molecules from EP0876402B1, “GROWTH HORMONE SECRETAGOGUE RECEPTOR FAMILY” (MERCK & CO., INC., priority 1995, dated 1997).

A word on the Kd: it is the constant that tells how readily two partners part at equilibrium.

Bounds are passed on as bounds.

This test relates to swine growth hormone secretagogue receptor (GHSR) Type I, clone 7-3, expressed transiently in COS-7 cells. As to the kind of experiment: 35S-labeled Compound A binding assay on crude membranes of transfected COS-7 cells.

For the molecule `CC(C)(N)C(=O)N[C@H](COCc1ccccc1)C(=O)N1CCC2(CC1)CN(S(C)(=O)=O)c1ccccc12` [^35S-Compound A], for the setting “saturation binding of ^35S-Compound A, clone 7-3 expressed transiently in COS-7 cells, 20°C, 1 hr”, the Kd was around 0.2 nM.
In the case of `CC(C)(N)C(=O)N[C@H](COCc1ccccc1)C(=O)N1CCC2(CC1)CN(S(C)(=O)=O)c1ccccc12` [Compound A], for the setting “displacement of ^35S-Compound A binding by 50 nM unlabeled Compound A, 60 min”, the specific binding displaced is reported as above 90%.
